Measurements taken from BindingDB's records for doi:10.1021/jm00376a004 (1984).

Test: Compound was evaluated for average apparent binding constant (Kd ) using Scatchard analysis to dTMP synthetase enzyme from chick embryo

Work on O=c1nc(NO)ccn1[C@H]1C[C@H](O)[C@@H](COP(=O)(O)O)O1 [Phosphoric acid mono-[3-hydroxy-5-(4-hydroxyamino-2-oxo-2H-pyrimidin-1-yl)-tetrahydro-furan-2-ylmethyl] ester] yielded a Kd of 1 µM.
